Assay results: ChEMBL document CHEMBL1201862, “PubChem BioAssay data set” (2004)
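In this assay, cells in 96-well plates receive the compound at five concentrations for 48 hours. Endpoints are linearly interpolated between the surrounding concentrations. Here, GI50 denotes the concentration required for 50% inhibition of growth.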 Active and inactive are the calls of the source. Cut-off read from the data, not from the text of the source: active = GI50 up to about 1.1 µM and inactive = higher.

Experiments:
Assay in all cases: growth of human tumour cells (NCI), 48 h
CCRF-CEM = test system: CCRF-CEM
HCT-116 = test system: HCT-116
HCT-15 = test system: HCT-15
HL-60 = test system: HL-60
HOP-62 = test system: HOP-62
IGROV-1 = test system: IGROV-1
MDA-N = test system: MDA-N
Malme-3M = test system: Malme-3M
NCI-H226 = test system: NCI-H226
OVCAR-3 = test system: OVCAR-3
OVCAR-4 = test system: OVCAR-4
OVCAR-8 = test system: OVCAR-8
RXF 393 = test system: RXF 393
SF-268 = test system: SF-268
SF-295 = test system: SF-295
SF-539 = test system: SF-539
SK-MEL-2 = test system: SK-MEL-2
T47D = test system: T47D
TK-10 = test system: TK-10

Row | Structure (SMILES) | GI50 (CCRF-CEM) | GI50 (HCT-116) | GI50 (HCT-15) [µM] | GI50 (HL-60) | GI50 (HOP-62) | GI50 (IGROV-1) | GI50 (MDA-N) | GI50 (Malme-3M) | GI50 (NCI-H226) | GI50 (OVCAR-3) | GI50 (OVCAR-4) | GI50 (OVCAR-8) | GI50 (RXF 393) | GI50 (SF-268) | GI50 (SF-295) | GI50 (SF-539) | GI50 (SK-MEL-2) | GI50 (T47D) | GI50 (TK-10)
1 | CC(=O)Nc1ccc(CNc2cc(=O)[nH]c(=O)[nH]2)cc1 | > 100 µM (inactive) | > 100 µM (inactive) | > 100 | > 100 µM (inactive) | > 100 µM (inactive) | > 100 µM (inactive) | > 100 µM (inactive) | > 100 µM (inactive) | > 100 µM (inactive) | > 100 µM (inactive) | > 100 µM (inactive) | > 100 µM (inactive) | > 100 µM (inactive) | > 100 µM (inactive) | > 100 µM (inactive) | > 100 µM (inactive) | > 100 µM (inactive) | > 100 µM (inactive) | > 100 µM (inactive)
2 | CC(Oc1ccccc1)C(=O)NN (stereo unspecified) | > 100 µM (inactive) | > 100 µM (inactive) | > 100 | > 100 µM (inactive) | > 100 µM (inactive) | > 100 µM (inactive) | > 100 µM (inactive) | > 100 µM (inactive) | > 100 µM (inactive) | > 100 µM (inactive) | > 100 µM (inactive) | > 100 µM (inactive) | > 100 µM (inactive) | > 100 µM (inactive) | > 100 µM (inactive) | > 100 µM (inactive) | > 100 µM (inactive) | > 100 µM (inactive) | > 100 µM (inactive)
3 | C=CCN1CCC(OC(=O)C(O)(/C=C\CC)C2CCCC2)CC1 (stereo unspecified) | > 100 µM (inactive) | > 100 µM (inactive) | > 100 | > 100 µM (inactive) | > 100 µM (inactive) | > 100 µM (inactive) | > 100 µM (inactive) | > 100 µM (inactive) | > 100 µM (inactive) | > 100 µM (inactive) | > 100 µM (inactive) | > 100 µM (inactive) | > 100 µM (inactive) | > 100 µM (inactive) | > 100 µM (inactive) | > 100 µM (inactive) | > 100 µM (inactive) | > 100 µM (inactive) | > 100 µM (inactive)
4 | O=c1c2c([N+](=O)[O-])cccc2nc2[nH]c3ccccc3n12 | > 75 µM (inactive) | 34.1 µM (inactive) | 53.6 | > 75 µM (inactive) | 70.8 µM (inactive) | 11.9 µM (inactive) | > 75 µM (inactive) | 46 µM (inactive) | 22.3 µM (inactive) | 20.7 µM (inactive) | 11.6 µM (inactive) | 14.5 µM (inactive) | 13.8 µM (inactive) | 18.7 µM (inactive) | 23.1 µM (inactive) | 13.3 µM (inactive) | 14.4 µM (inactive) | 15 µM (inactive) | 18.7 µM (inactive)
5 | NC(=O)C1=C(O)C[C@@H]2CC3Cc4cccc(O)c4C(=O)C3=C(O)[C@]2(O)C1=O (stereo partly specified) | 0.873 µM (active) | 1.8 µM (inactive) | 0.479 | 2.83 µM (inactive) | 3.31 µM (inactive) | 2 µM (inactive) | 2.9 µM (inactive) | 2 µM (inactive) | 2.23 µM (inactive) | 2.77 µM (inactive) | 10.7 µM (inactive) | 2.92 µM (inactive) | 1.51 µM (inactive) | 2.02 µM (inactive) | 1.85 µM (inactive) | 1.64 µM (inactive) | 1.86 µM (inactive) | 2.63 µM (inactive) | 4.86 µM (inactive)
6 | O=C(O)CCCSc1ccccc1 | > 100 µM (inactive) | > 100 µM (inactive) | > 100 | > 100 µM (inactive) | > 100 µM (inactive) | > 100 µM (inactive) | > 100 µM (inactive) | > 100 µM (inactive) | > 100 µM (inactive) | > 100 µM (inactive) | > 100 µM (inactive) | > 100 µM (inactive) | > 100 µM (inactive) | > 100 µM (inactive) | > 100 µM (inactive) | > 100 µM (inactive) | > 100 µM (inactive) | > 100 µM (inactive) | > 100 µM (inactive)
7 | Nc1ccc(-c2nc3ccccc3s2)cc1I | 30.1 µM (inactive) | – | 44.3 | 24.2 µM (inactive) | 37.3 µM (inactive) | 0.0107 µM (active) | > 100 µM (inactive) | 99.3 µM (inactive) | 0.221 µM (active) | 0.0614 µM (active) | > 7.93 µM (inactive) | > 96.2 µM (inactive) | 29.7 µM (inactive) | > 33.5 µM (inactive) | 74.3 µM (inactive) | 77.8 µM (inactive) | > 100 µM (inactive) | 18.7 µM (inactive) | 0.0521 µM (active)
8 | COC(=O)CNC(=O)CSc1nnc(COc2ccc(Cl)cc2)n1-c1ccccc1 | 57.4 µM (inactive) | 94.4 µM (inactive) | > 100 | 30.1 µM (inactive) | > 100 µM (inactive) | 21 µM (inactive) | 19.2 µM (inactive) | 41.3 µM (inactive) | 47.4 µM (inactive) | 71.8 µM (inactive) | > 100 µM (inactive) | 31 µM (inactive) | 23.1 µM (inactive) | 22.2 µM (inactive) | > 100 µM (inactive) | > 100 µM (inactive) | 23.5 µM (inactive) | 26.6 µM (inactive) | 22 µM (inactive)
